Source: patent US20260327215A1, “ISOXAZOLIDINES AS RIPK1 INHIBITORS AND USE THEREOF” (GENZYME CORPORATION, priority 2022, published 2026)

Experiments:
[1] = biological target: T1, hRIPK1 (aa 1-375) fusion protein (Homo sapiens, UniProt Q13546); test: ADP Glo assay: RIPK1 autophosphorylation (ATP to ADP conversion) inhibition; type: biochemical; conditions: 50 μM ATP; 30 min preincubation, 240 min incubation at room temperature; 1% DMSO
T1 construct: hRIPK1 (aa 1-375) fusion protein
T1 sequence (Q13546 1-375): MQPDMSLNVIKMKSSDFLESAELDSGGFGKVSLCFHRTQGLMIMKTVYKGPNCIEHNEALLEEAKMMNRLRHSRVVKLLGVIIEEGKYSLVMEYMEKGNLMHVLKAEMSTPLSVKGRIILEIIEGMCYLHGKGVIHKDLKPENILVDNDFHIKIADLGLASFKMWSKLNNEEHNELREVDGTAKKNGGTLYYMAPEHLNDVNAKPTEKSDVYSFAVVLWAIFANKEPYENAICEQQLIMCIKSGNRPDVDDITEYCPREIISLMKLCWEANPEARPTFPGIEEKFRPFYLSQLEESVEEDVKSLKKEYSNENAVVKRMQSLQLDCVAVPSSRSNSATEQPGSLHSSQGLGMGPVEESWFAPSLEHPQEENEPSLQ
Procedure: Evaluation of Receptor-Interacting Protein Kinase 1 Inhibition.
The catalytic activity of RIPK1 was measured by monitoring the conversion of Adenosine triphosphate (ATP) to Adenosine diphosphate (ADP) due to autophosphorylation using an ADP-Glo kinase kit (Promega, catalog no. V9104).
After another 240 minutes incubation at room temperature, 5 μl Promega ADP-Glo reagent I were added to quench the reaction and deplete unconsumed ATP. After an incubation period of 30 minutes, 10 μl Promega ADP-Glo detection reagent II were added resulting in conversion of ADP to ATP, which generates a light-reaction between luciferase and luciferin. Luminescence was quantified after 30 minutes with a Pherastar FS (BMG LABTECH, Ortenberg).
The adjustment was obtained by nonlinear regression using the Levenberg Marquardt algorithm.

U937 cells = test: U937 cell assay: inhibition of TNFa/zVAD-induced cell death (necroptosis), MTS viability; type: cell-based

| Structure (SMILES) | IC50 [1] | IC50 (U937 cells) |
| --- | --- | --- |
| COc1cc(N2CCC(C(=O)N3OCC[C@H]3c3cc(F)cc(C#N)c3)CC2)ncn1 [Example 4, (S)-3-fluoro-5-(2-(1-(6-methoxypyrimidin-4-yl)piperidine-4-carbonyl)isoxazolidin-3-yl)benzonitrile] | 34 nM | 80 nM |
| COc1ncnc(N2CCC(C(=O)N3OCC[C@H]3c3cc(F)cc(C#N)c3)CC2)c1F [Example 5, 3-fluoro-5-[(3S)-2-[1-(5-fluoro-6-methoxy-pyrimidin-4-yl)piperidine-4-carbonyl]isoxazolidin-3-yl]benzonitrile] | – | 8 nM |
